Reference: US12252524B2, “GIP/GLP1 co-agonist compounds” (Eli Lilly and Company, priority 2018, dated 2025)
Like-named read-outs stand apart in the source and are kept apart here. Numbered stars: 1 amine (or outer) side, 2 acyl side, 3 side chain; on linkers, the order of the positions; unused ones are H or OH. Square brackets hold non-standard residues; d marks the D form. Side chains are listed from the residue outwards. Peptide text beside a SMILES is read from it. * marks the point of attachment. C20 diacid = O=C(O)CCCCCCCCCCCCCCCCCCC(=O)*; C18 diacid = O=C(O)CCCCCCCCCCCCCCCCC(=O)*; αMePhe(2-F) = C[C@](N)(Cc1ccccc1F)C(=O)O; γGlu = O=C(O)[C@H](CCC(=O)[*:2])N[*:1]; αMeF = C[C@](N)(Cc1ccccc1)C(=O)O; αMeL = CC(C)C[C@](C)(N)C(=O)O; AEEA = NCCOCCOCC(=O)O; Aib = CC(C)(N)C(=O)O

What was measured:
[1] = target: T1, human Gcg receptor (Homo sapiens, UniProt P47871); assay: [125I]-Glucagon binding (SPA), human Gcg receptor
T1 construct: expressed in transfected cells; crude membranes
T1 sequence (P47871 26-477): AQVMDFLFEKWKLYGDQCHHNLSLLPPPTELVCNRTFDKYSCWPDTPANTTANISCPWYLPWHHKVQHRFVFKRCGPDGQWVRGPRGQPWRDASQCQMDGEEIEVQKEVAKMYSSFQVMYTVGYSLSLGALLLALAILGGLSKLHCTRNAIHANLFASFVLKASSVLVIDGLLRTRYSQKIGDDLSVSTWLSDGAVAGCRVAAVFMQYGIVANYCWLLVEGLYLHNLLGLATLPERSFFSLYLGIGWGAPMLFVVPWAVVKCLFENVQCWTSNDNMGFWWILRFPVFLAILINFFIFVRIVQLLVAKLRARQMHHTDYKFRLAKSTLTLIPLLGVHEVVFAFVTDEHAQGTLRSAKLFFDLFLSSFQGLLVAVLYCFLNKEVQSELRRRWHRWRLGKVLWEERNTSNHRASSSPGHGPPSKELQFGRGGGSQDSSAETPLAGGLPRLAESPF
Procedure, shortened: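 Crude membranes from cells expressing the receptor, prepared by hypotonic lysis in 50 mM Tris HCl pH 7.5 with protease inhibitors, homogenization and differential centrifugation, were used in a WGA-bead SPA. Binding buffer: 25 mM HEPES pH 7.4, 2.5 mM CaCl2, 1 mM MgCl2, bacitracin, Tween-20.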

[2] = in vivo; conditions: male, cynomolgus monkey, plasma, sc, 50 nmol/kg
Method: (§1) Pharmacokinetics in male Cynomolgus Monkeys The pharmacokinetics of select Examples are evaluated following a single subcutaneous administration of 50 nMol/kg to male cynomolgus monkeys. […] Peptide plasma (K3 EDTA) concentrations are determined using a qualified LC/MS method that measured the intact mass of the compound. […] Instruments are combined for LC/MS detection.

[3] = in vivo; conditions: male, CD-1, mouse, plasma, sc, 200 nmol/kg
Method: (§2) The pharmacokinetics of select Examples are evaluated following a single subcutaneous administration of 200 nMol/kg to male CD-1 mice. […] Plasma (K3 EDTA) concentrations are determined using a qualified LC/MS method that measures the intact mass of the Examples. […] Instruments are combined for LC/MS detection.

[4] = single intrajejunal 1 μmol/kg with 250 mM C10 and 12 mg/mL SBTI, male Sprague Dawley rats
Method: (§3) The pharmacokinetics of select Examples are evaluated following a single subcutaneous (SC) administration of 50 nMol/kg (dissolved in PBS, pH 7.4) or single 1 μmol/kg (mixed with 250 mM sodium decanoate (“C10”) and 12 mg/mL soybean trypsin inhibitor (SBTI)) intrajejunal (IJ) administration to male Sprague Dawley rats. […] Pharmacokinetic parameters are calculated using individual plasma concentrations. A qualified LC/MS method that measures the intact mass of the Example is used to determine plasma (K3 EDTA) concentrations. Each Example is tested with an analog peptide as an internal standard. Immunoaffinity based precipitation with anti-GIP/GLP1 antibodies is used to extract each test peptide and analog.

[5] = single subcutaneous 50 nMol/kg, male cynomolgus monkeys
Method: as §1

[6] = Proteolytic stability assay in 1% rat small intestinal fluid (rSIF)
Method: The stability of peptides are compared in 1% rat small intestinal fluid (rSIF). The amount of intact peptide is measured for a sample peptide at 0, 3, 15, and 30 minutes to assess proteolytic stability. The amount of intact peptide for a sample peptide is measured in 90% pig small intestinal fluid (pSIF) at 0, 30, 45, and 60 minutes to assess the proteolytic stability.
Peptides are prepared at 0.4 mg/mL in 50 mM Tris pH8.0. […] The mixture is incubated at 37° C. at 150 rpm. Thirty μL of each sample are removed and placed into a new tube before the rSIF is added and at […]. At each time point, the reaction was quenched by 1% TFA in 50% ACN at 1:1. The samples are diluted 100 times using dilution buffer (1:1 of 1% TFA in 50% ACN: 50 mM Tris pH8) and ready for analysis using mass spectrometry (MS).
The data analysis is performed using MassLynx.

[7] = single subcutaneous 200 nMol/kg, male CD-1 mice
Method: as §2

[8] = in vivo; conditions: male, Sprague Dawley, rat, plasma, other: intrajejunal, 1 umol/kg
Method: as §3

[9] = single subcutaneous 50 nMol/kg, male Sprague Dawley rats; mean (SD)
Method: as §3

[10] = test system: CD8+ T cell depleted peripheral blood mononuclear cells; assay: CD4+ T cell assay for potential clinical immunogenicity
[11] = in vivo; conditions: male, Sprague Dawley, rat, plasma, sc, 50 nmol/kg
Method: as §3

[12] = target: human GLP-1 receptor (GLP-1R) (Homo sapiens, UniProt P43220); assay: cAMP pharmacological functional assay in presence of casein, hGLP-1R; type: cell-based
Chain of human GLP-1 receptor (GLP-1R) (P43220 24-463): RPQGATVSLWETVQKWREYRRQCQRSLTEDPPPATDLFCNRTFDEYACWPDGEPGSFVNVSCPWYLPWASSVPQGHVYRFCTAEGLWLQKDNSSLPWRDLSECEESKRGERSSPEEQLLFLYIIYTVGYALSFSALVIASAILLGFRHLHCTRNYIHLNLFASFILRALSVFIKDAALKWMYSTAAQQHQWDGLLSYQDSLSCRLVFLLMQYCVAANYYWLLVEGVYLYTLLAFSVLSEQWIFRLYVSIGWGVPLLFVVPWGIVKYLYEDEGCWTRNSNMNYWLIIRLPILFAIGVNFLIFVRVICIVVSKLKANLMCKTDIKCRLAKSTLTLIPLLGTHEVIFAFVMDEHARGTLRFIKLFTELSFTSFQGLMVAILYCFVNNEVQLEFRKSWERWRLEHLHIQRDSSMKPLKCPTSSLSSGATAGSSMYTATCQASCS

[13] = test system: CD8+ T cell depleted peripheral blood mononuclear cells
[14] = rat, real gastrointestinal fluid or homogenate, pH 8
[15] = Examples 10 uM, KLH 0.33 μM, 7 days
[16] = read-out: hGLcgR Ki, nM (SEM, n)
[17] = HEK293 cells expressing hGLP-1R, 0.1% Casein, geometric mean, read-out: hGLP1R cAMP Rel EC50 nM (SEM, n)

## CC[C@H](C)[C@H](NC(=O)[C@H](CC(C)C)NC(=O)[C@H](Cc1ccc(O)cc1)NC(=O)[C@@H](CCC(=O)O)NC(=O)[C@@H](NC(=O)[C@H](Cc1ccccc1)NC(=O)[C@H](CCC(=O)O)NC(=O)C(C)(C)NC(=O)[C@H](CCC(N)=O)NC(=O)[C@H](C)NC(=O)[C@H](CCCCNC(=O)COCCOCCNC(=O)COCCOCCNC(=O)CC[C@H](NC(=O)CCCCCCCCCCCCCCCCCCC(=O)O)C(=O)O)NC(=O)[C@H](CCC(=O)O)NC(=O)[C@H](CC(=O)O)NC(=O)[C@H](CC(C)C)NC(=O)[C@](C)(CC(C)C)NC(=O)[C@@H](NC(=O)[C@H](CO)NC(=O)[C@H](Cc1ccc(O)cc1)NC(=O)[C@H](CC(=O)O)NC(=O)[C@H](CO)NC(=O)[C@@H](NC(=O)[C@](C)(Cc1ccccc1F)NC(=O)[C@@H](NC(=O)CNC(=O)[C@H](CCC(=O)O)NC(=O)C(C)(C)NC(=O)[C@@H](N)Cc1ccc(O)cc1)[C@@H](C)O)[C@@H](C)O)[C@@H](C)CC)[C@@H](C)CC)C(=O)N[C@@H](CCC(=O)O)C(=O)NCC(=O)NCC(=O)N1CCC[C@H]1C(=O)N[C@@H](CO)C(=O)N[C@@H](CO)C(=O)NCC(=O)N[C@@H](C)C(=O)N1CCC[C@H]1C(=O)N1CCC[C@H]1C(=O)N1CCC[C@H]1C(=O)N[C@@H](CO)C(N)=O [Example 1] (H-Y[Aib]EGT[αMePhe(2-F)]TSDYSI[αMeL]LDEK([AEEA-AEEA-γGlu-C20 diacid])AQ[Aib]EFI[dE]YLIEGGPSSGAPPPS-NH2)
[1]
  Ki: 207 nM
[2]
  CL/F: 0.69 mL/h/kg
  Tmax: 18 h
  half-life: 125 h
[3]
  CL/F: 7.37 mL/h/kg
  Tmax: 12 h
  half-life: 17.5 h
[4]
  AUCINF_D_obs: 1.31 hr*kg*nmol/L/nmol
[4]; mean (SD)
  Cmax/D: 0.08 (0.05) kg*nmol/L/nmol
[5]
  AUCINF_D_obs: 1458 hr*kg*nmol/L/nmol
  Cmax/D: 6.5 kg*nmol/L/nmol
[6]; 0 min, 1% rSIF, 37° C.
  percentage of peptide not cleaved using rSIF: 100%
[6]; [14]
  remaining at 0.05 h, 0.4 mg/mL: 82.4%
  remaining at 0.25 h, 0.4 mg/mL: 41.4%
  remaining at 1 h, 0.4 mg/mL: 1.6%
[7]
  AUCINF_D_obs: 135.61 hr*kg*nmol/L/nmol
  Cmax/D: 4.84 kg*nmol/L/nmol
[8]
  Tmax: 1.33 h
[9]
  AUCINF_D_obs: 294.2 (30.0) hr*kg*nmol/L/nmol
  Cmax/D: 3.34 (0.22) kg*nmol/L/nmol
[10]; CD4+ T cell assay
  frequency of positive CD+ T cell response (CDI>2.5): low
[10]; [15]
  % Donor Response (CD4+ T cell response): 9%
  Median Response Strength in positive donors (CDI): 0.7 CDI
[11]
  CL/F: 3.42 mL/h/kg
  Tmax: 21.3 h
  half-life: 44.7 h
[12]
  EC50: 0.041 nM

## CC[C@H](C)[C@H](NC(=O)[C@H](CC(C)C)NC(=O)[C@H](Cc1ccc(O)cc1)NC(=O)[C@H](CCC(=O)O)NC(=O)[C@@H](NC(=O)[C@H](Cc1ccccc1)NC(=O)[C@H](CCC(=O)O)NC(=O)C(C)(C)NC(=O)[C@H](CCC(N)=O)NC(=O)[C@H](C)NC(=O)[C@H](CCCCNC(=O)COCCOCCNC(=O)COCCOCCNC(=O)CC[C@H](NC(=O)CCCCCCCCCCCCCCCCCCC(=O)O)C(=O)O)NC(=O)[C@H](CCCCN)NC(=O)[C@H](CC(=O)O)NC(=O)[C@H](CC(C)C)NC(=O)[C@](C)(CC(C)C)NC(=O)[C@@H](NC(=O)[C@H](CO)NC(=O)[C@H](Cc1ccc(O)cc1)NC(=O)[C@H](CC(=O)O)NC(=O)[C@H](CO)NC(=O)[C@@H](NC(=O)[C@H](Cc1ccccc1)NC(=O)[C@@H](NC(=O)CNC(=O)[C@H](CCC(=O)O)NC(=O)C(C)(C)NC(=O)[C@@H](N)Cc1ccc(O)cc1)[C@@H](C)O)[C@@H](C)O)[C@@H](C)CC)[C@@H](C)CC)C(=O)N[C@@H](C)C(=O)NCC(=O)NCC(=O)N1CCC[C@H]1C(=O)N[C@@H](CO)C(=O)N[C@@H](CO)C(=O)NCC(=O)N[C@@H](C)C(=O)N1CCC[C@H]1C(=O)N1CCC[C@H]1C(=O)N1CCC[C@H]1C(=O)N[C@@H](CO)C(N)=O [Example 289] (H-Y[Aib]EGTFTSDYSI[αMeL]LDKK([AEEA-AEEA-γGlu-C20 diacid])AQ[Aib]EFIEYLIAGGPSSGAPPPS-NH2)
[1]; [16]
  Ki: > 1050 nM
[13]
  frequency of positive CD+ T cell response (CDI>2.5): low
[12]; [17]
  EC50: 0.0544 nM

## CC[C@H](C)[C@H](NC(=O)[C@H](CC(C)C)NC(=O)[C@H](Cc1ccc(O)cc1)NC(=O)[C@H](CCC(=O)O)NC(=O)[C@@H](NC(=O)[C@H](Cc1ccccc1)NC(=O)[C@H](C)NC(=O)C(C)(C)NC(=O)[C@H](CCC(N)=O)NC(=O)[C@H](C)NC(=O)[C@H](CCCCNC(=O)COCCOCCNC(=O)COCCOCCNC(=O)CC[C@H](NC(=O)CCCCCCCCCCCCCCCCC(=O)O)C(=O)O)NC(=O)[C@H](CCCCN)NC(=O)[C@H](CC(=O)O)NC(=O)[C@H](CC(C)C)NC(=O)[C@H](CC(C)C)NC(=O)[C@@H](NC(=O)[C@H](CO)NC(=O)[C@H](Cc1ccc(O)cc1)NC(=O)[C@H](CC(=O)O)NC(=O)[C@H](CO)NC(=O)[C@@H](NC(=O)[C@](C)(Cc1ccccc1)NC(=O)[C@@H](NC(=O)CNC(=O)[C@H](CCC(=O)O)NC(=O)C(C)(C)NC(=O)[C@@H](N)Cc1ccc(O)cc1)[C@@H](C)O)[C@@H](C)O)[C@@H](C)CC)[C@@H](C)CC)C(=O)N[C@@H](CCC(=O)O)C(=O)NCC(=O)NCC(=O)N1CCC[C@H]1C(=O)N[C@@H](CO)C(=O)N[C@@H](CO)C(=O)NCC(N)=O [Example 301] (H-Y[Aib]EGT[αMeF]TSDYSILLDKK([AEEA-AEEA-γGlu-C18 diacid])AQ[Aib]AFIEYLIEGGPSSG-NH2)
[1]; [16]
  Ki: 44.4 nM
[13]
  frequency of positive CD+ T cell response (CDI>2.5): low
[12]; [17]
  EC50: 0.0441 nM

## CC[C@H](C)[C@H](NC(=O)[C@H](CC(C)C)NC(=O)[C@H](Cc1ccc(O)cc1)NC(=O)[C@H](CCC(=O)O)NC(=O)[C@@H](NC(=O)[C@H](Cc1ccccc1)NC(=O)[C@H](C)NC(=O)C(C)(C)NC(=O)[C@H](CCC(N)=O)NC(=O)[C@H](C)NC(=O)[C@H](CCCCNC(=O)COCCOCCNC(=O)COCCOCCNC(=O)CC[C@H](NC(=O)CCCCCCCCCCCCCCCCC(=O)O)C(=O)O)NC(=O)[C@H](CCC(=O)O)NC(=O)[C@H](CC(=O)O)NC(=O)[C@H](CC(C)C)NC(=O)[C@](C)(CC(C)C)NC(=O)[C@@H](NC(=O)[C@H](CO)NC(=O)[C@H](Cc1ccc(O)cc1)NC(=O)[C@H](CC(=O)O)NC(=O)[C@H](CO)NC(=O)[C@@H](NC(=O)[C@H](Cc1ccccc1)NC(=O)[C@@H](NC(=O)CNC(=O)[C@H](CCC(=O)O)NC(=O)C(C)(C)NC(=O)[C@@H](N)Cc1ccc(O)cc1)[C@@H](C)O)[C@@H](C)O)[C@@H](C)CC)[C@@H](C)CC)C(=O)N[C@@H](CCC(=O)O)C(=O)NCC(=O)NCC(=O)N1CCC[C@H]1C(=O)N[C@@H](CO)C(=O)N[C@@H](CO)C(=O)NCC(N)=O [Example 303] (H-Y[Aib]EGTFTSDYSI[αMeL]LDEK([AEEA-AEEA-γGlu-C18 diacid])AQ[Aib]AFIEYLIEGGPSSG-NH2)
[1]; [16]
  Ki: 502 nM
[13]
  frequency of positive CD+ T cell response (CDI>2.5): low
[12]; [17]
  EC50: 0.104 nM

## CC[C@H](C)[C@H](NC(=O)[C@H](CC(C)C)NC(=O)[C@H](Cc1ccc(O)cc1)NC(=O)[C@H](CCC(=O)O)NC(=O)[C@@H](NC(=O)[C@H](Cc1ccccc1)NC(=O)[C@H](C)NC(=O)C(C)(C)NC(=O)[C@H](CCC(N)=O)NC(=O)[C@H](C)NC(=O)[C@H](CCCCNC(=O)COCCOCCNC(=O)COCCOCCNC(=O)CC[C@H](NC(=O)CCCCCCCCCCCCCCCCC(=O)O)C(=O)O)NC(=O)[C@H](CCCCN)NC(=O)[C@H](CC(=O)O)NC(=O)[C@H](CC(C)C)NC(=O)[C@H](CC(C)C)NC(=O)[C@@H](NC(=O)[C@H](CO)NC(=O)[C@H](Cc1ccc(O)cc1)NC(=O)[C@H](CC(=O)O)NC(=O)[C@H](CO)NC(=O)[C@@H](NC(=O)[C@H](Cc1ccccc1)NC(=O)[C@@H](NC(=O)CNC(=O)[C@H](CCC(=O)O)NC(=O)C(C)(C)NC(=O)[C@@H](N)Cc1ccc(O)cc1)[C@@H](C)O)[C@@H](C)O)[C@@H](C)CC)[C@@H](C)CC)C(=O)N[C@@H](C)C(=O)NCC(=O)NCC(=O)N1CCC[C@H]1C(=O)N[C@@H](CO)C(=O)N[C@@H](CO)C(=O)NCC(=O)N[C@@H](C)C(=O)N1CCC[C@H]1C(=O)N1CCC[C@H]1C(=O)N1CCC[C@H]1C(=O)N[C@@H](CO)C(N)=O [Example 316] (H-Y[Aib]EGTFTSDYSILLDKK([AEEA-AEEA-γGlu-C18 diacid])AQ[Aib]AFIEYLIAGGPSSGAPPPS-NH2)
[1]; [16]
  Ki: 654 nM
[13]
  frequency of positive CD+ T cell response (CDI>2.5): low
[12]; [17]
  EC50: 0.122 nM
